Source: article PMC12499601 (Pulmonary pharmacology & therapeutics, 2024)
Several values for one entry are separate records, joined by “and”; a condition that tells them apart may be missing. Identical values can stand only once. Like-named read-outs stand apart in the source and are kept apart here.

Experiments:
[1] = system: dopamine transporter; conditions: cited from earlier work
[2] = format: in vivo, human; conditions: capillary plasma, pwCF, ivacaftor 150mg twice daily steady state, n = 8; for Cmax / half-life: human, oral, 150 mg
[3] = system: δ-opioid receptor; conditions: cited from earlier work
[4] = system: 5-HT2C receptor; conditions: cited from earlier work
[5] = system: HNEs, HBEs, and CFBEs; format: in vitro ADME, human; conditions: ALI cultures, 1000nM of Iva basolateral, 48 hours; for metabolite detected in apical or basolateral media: media prior to cell lysis (data not shown)
[6] = system: β3-adrenergic receptor; conditions: cited from earlier work
[7] = system: CYP3A4; conditions: in vitro; cited from earlier work
[8] = system: CFTR; conditions: cited from earlier work
[9] = system: nasal brushings lysate; conditions: pwCF; cited from earlier work
[10] = pwCF; cited from earlier work
[11] = Metabolite:parent ratio; format: in vivo, human; conditions: capillary plasma, metabolite:Iva, 12 hour dosing interval
[12] = system: 16HBE cells; experiment: Uptake of metabolites into 16HBE cells at ALI, LC-MS/MS of cellular lysate; format: in vitro ADME, human; conditions: for mean concentration detected in the cells: 16HBE at ALI, 1000nM of the compound in basolateral media, 48 hours; for crossing of the plasma membrane of airway epithelial cells: 16HBE in vitro model
[13] = system: human nasal epithelial cells; experiment: Capillary plasma versus nasal epithelial cell concentrations; format: in vivo; conditions: nasal epithelial cell lysate of participants taking ivacaftor
[14] = format: in vivo, human; conditions: plasma of a participant taking ivacaftor

Compound | Cavg, Mean (SD) [2] | Cavg, Median (min, max) [2] | Cmin, Mean (SD) [2] | Cmin, Median (min, max) [2] | Tmax, Median (min, max) [2] | effect on CYP3A4 activity [7] | activity relative to parent Iva [8] | potentiation activity relative to that of Iva [8] | Cmax, Mean (SD) [2] | Cmax, Median (min, max) [2] | T1/2, Mean (SD) [2] | T1/2, Median (min, max) [2] | Tmax, Mean (SD) [2] | Cavg, venous plasma [10] [ng/mL] | metabolite detected in cells treated with Iva ([5]; cell lysate) | metabolite detected in apical or basolateral media [5] | mean metabolite:parent ratio (MPR) [11] | mean concentration detected in the cells [12] | crossing of the plasma membrane of airway epithelial cells [12] | further results
CC(C)(C)c1cc(C(C)(C)C)c(NC(=O)c2c[nH]c3ccccc3c2=O)cc1O [Iva, ivacaftor] | 532 (343) ng/mL | 416(221, 1206) ng/mL | 352 (245) ng/mL | 287 (113, 813) ng/mL | 5 (4, 6) h | reduce CYP3A4 activity |  |  |  |  |  |  |  |  |  |  |  |  |  | affinity [1]: significant affinity; Cmax ([2]; Mean (SD)): 744 ng/mL; Cmax ([2]; Median (min, max)): 552 ng/mL; half-life ([2]; T1/2, Mean (SD)): 7.9 h; half-life ([2]; T1/2, Median (min, max)): 6.7 h; affinity [3]: significant affinity; affinity [4]: significant affinity; parent compound detected in cells ([5]; cell lysate): detected in all the cell types; affinity [6]: significant affinity
CC(C)(C)c1cc(C(C)(C)CO)c(O)cc1NC(=O)c1c[nH]c2ccccc2c1=O [M1-Iva, hydroxymethyl ivacaftor] | 726 (365) ng/mL | 607 (256, 1170) ng/mL | 501 (228) ng/mL | 475 (55, 839) ng/mL | 5 (4, 6) h | stronger inhibition | 1/6 | 1/6 | 1036 (520) ng/mL | 913 (402, 1750) ng/mL | 9.2 (4.29) h | 8.7 (3.35, 16.4) h | 5.3 (0.7) h | 3156 | No M1-Iva and M6-Iva were detected | no M1-Iva and M6-Iva were detected | 1.5 | 1000 ng/ml and 2.5 μM | readily enters the airway epithelial cells | mean concentration in nasal brushings lysate [9]: 696 ng/mL
CC(C)(C)c1cc(C(C)(C)C(=O)O)c(O)cc1NC(=O)c1c[nH]c2ccccc2c1=O [M6-Iva, ivacaftor carboxylate] | 797 (430) ng/mL | 842 (231, 1418) ng/mL | 522 (365) ng/mL | 527 (5.8, 1070) ng/mL | 8 (4, 10) h |  | inactive metabolite | 1/50 | 927 (456) ng/mL | 918 (265, 1630) ng/mL | 8.8 (6.6) h | 8.8 (4.2, 13.5) h | 6.9 (3.7) h | 3821 | No M1-Iva and M6-Iva were detected | no M1-Iva and M6-Iva were detected | 1.6 | 15 ng/ml and 0.04 μM | does not readily cross the plasma membrane | detection in cellular samples [13]: found only in one cellular sample; average concentration in the cellular lysate ([12]; 16HBE, 5000nM of the compound, 48 hours (data not shown)): 81 ng/ml and 0.19 μM
ivacaftor hydrate [Iva-hydrate] |  |  |  |  |  |  |  |  |  |  |  |  |  |  |  |  |  |  |  | detection in plasma (qualitative) [14]: small peaks
